# Measured values published in patent publication US9657351B2, “MRNA-based gene expression for personalizing patient cancer therapy with an MDM2 antagonist” (Hoffmann-La Roche Inc., priority 2013, dated 2017).
# How the values were obtained:
# Test in all cases: COMPOUND A In Vitro Assay
# Type in all cases: cell-based
# 10C9 = conditions: Homo sapiens
# From the text: (§1) To generate an MDM2 antagonist therapy predictive signature, the response of MDM2 antagonist therapy in vitro with gene expression profiling (FIG. 1) is combined. A bank of 287 human cancer cell lines, collectively termed the Cell Lines for Oncology/Chugai ACcumulative Tumour EncycLopedia (CELLO/CACTEL), representing a broad array of diverse human cancer tumor types are subject to evaluation using several high-throughput genomic technology platforms. The mutational status of nucleic acids from each cell line is determined by exome sequencing. Messenger RNA (mRNA) expression levels at baseline, prior to MDM2 antagonist therapy, are obtained via RNA sequencing. MDM2 antagonist therapy COMPOUND A, sometimes referred to herein as RG7112, responses are obtained by assays known to those skilled in the art such as RNA sequencing and microarray measurement using Gene Chip Human Genome U133 Plus 2.0 Array. The MDM2 therapy responses are obtained by high throughout screening assays. Depending on their responses to COMPOUND A these cell lines are classified as either sensitive, defined as IC50<=1, or resistant, defined as IC50>=10.
# (§2) 281 cells are treated with MDM2 antagonists and the IC50 (therapy response) is generated. The cell lines span a broad range of tumor cell types of derivation.
# A-172 = conditions: Homo sapiens
# From the text: as §1, §2
# A-204 = conditions: Homo sapiens, A204, Muscle, TP53 Mutant
# From the text: as §1, §2
# AN3 CA = conditions: Homo sapiens, Uterus, endometrium, TP53 Mutant
# From the text: as §1, §2
# ARH-77 = conditions: Homo sapiens, Lymphocyte B, peripheral blood, TP53 Mutant
# From the text: as §1, §2
# C-33 A = conditions: Homo sapiens, Cervix, TP53 Mutant
# From the text: as §1, §2
# Calu-3 = conditions: Homo sapiens, Lung, TP53 Mutant
# From the text: as §1, §2
# Capan-2 = conditions: Homo sapiens, Pancreas, TP53 Mutant
# From the text: as §1, §2
# D-283MED = conditions: Homo sapiens, D283 Med, tissue NA, TP53 Wild type
# From the text: as §1, §2
# EFO-21 = conditions: Homo sapiens, Ovary, TP53 Mutant
# From the text: as §1, §2
# EGI-1 = conditions: Homo sapiens, Bile duct, TP53 Mutant
# From the text: as §1, §2
# F-36P = conditions: Homo sapiens, Myeloblast, TP53 Mutant
# From the text: as §1, §2
# HCC1937 = conditions: Homo sapiens, Breast, TP53 NA
# From the text: as §1, §2
# HEC-1-A = conditions: Homo sapiens, Uterus, endometrium, TP53 Mutant
# From the text: as §1, §2
# HL-60 = conditions: Homo sapiens, Blood, TP53 Mutant
# From the text: as §1, §2
# HUP-T4 = conditions: Homo sapiens, Pancreas, TP53 Mutant
# From the text: as §1, §2
# J82 = conditions: Homo sapiens, Urinary, bladder, TP53 Mutant
# From the text: as §1, §2
# KELLY = conditions: Homo sapiens, Brain, TP53 Mutant
# From the text: as §1, §2
# KMS-12-PE = conditions: Homo sapiens, Plasma, TP53 Mutant
# From the text: as §1, §2
# KMS-28BM = conditions: Homo sapiens, Lymphocyte, TP53 Mutant
# From the text: as §1, §2
# MDA-MB-231 = conditions: Homo sapiens, Breast, mammary gland, TP53 Mutant
# From the text: as §1, §2
# ME-180 = conditions: Homo sapiens, Cervix, TP53 Wild type
# From the text: as §1, §2
# NCI-H1048 = conditions: Homo sapiens, Lung, TP53 Mutant
# From the text: as §1, §2
# NCI-H2227 = conditions: Homo sapiens, Lung, TP53 Mutant
# From the text: as §1, §2
# NCI-H292 = conditions: Homo sapiens, Lung, TP53 Wild type
# From the text: as §1, §2
# NCI-H441 = conditions: Homo sapiens, Lung, TP53 Mutant
# From the text: as §1, §2
# NCI-H446 = conditions: Homo sapiens, Lung, TP53 Mutant
# From the text: as §1, §2
# NCI-H522 = conditions: Homo sapiens, Lung, TP53 Mutant
# From the text: as §1, §2
# NCI-H69 = conditions: Homo sapiens, Lung, TP53 Mutant
# From the text: as §1, §2
# RL95-2 = conditions: Homo sapiens, Uterus, endometrium, TP53 Mutant
# From the text: as §1, §2
# RPMI-8226 = conditions: Homo sapiens, Lymphocyte B, peripheral blood, TP53 Mutant
# From the text: as §1, §2
# SK-ES-1 = conditions: Homo sapiens, SK-ES1, Bone, TP53 Mutant
# From the text: as §1, §2
# SK-LU-1 = conditions: Homo sapiens, Lung, TP53 Mutant
# From the text: as §1, §2
# SK-N-SH = conditions: Homo sapiens
# From the text: as §1, §2
# SW620 = conditions: Homo sapiens, SW-620, Intestine, large, colon, TP53 Mutant
# From the text: as §1, §2
# TF-1a = conditions: Homo sapiens, Bone marrow, TP53 Mutant
# From the text: as §1, §2
# U-2197 = conditions: Homo sapiens, Skin, hypodermis, subcutaneous, TP53 Mutant
# From the text: as §1, §2
# YAPC = conditions: Homo sapiens, Pancreas, TP53 Mutant
# From the text: as §1, §2
compound,measurement,setting,value
CCOc1cc(C(C)(C)C)ccc1C1=N[C@@](C)(c2ccc(Cl)cc2)[C@@](C)(c2ccc(Cl)cc2)N1C(=O)N1CCN(CCCS(C)(=O)=O)CC1 [COMPOUND A],IC50,"10C9; 10C9, Lymphocyte B, TP53 Mutant",19 µM
same,IC50,10C9; 10C9 cells,19 µM
same,IC50,"A-172; A 172, A-172, Brain, TP53 Wild type",0.58 µM
same,IC50,"A-172; A 172, A-172 cells",0.6 µM
same,IC50,A-204,8.4 µM
same,IC50,AN3 CA,18 µM
same,IC50,ARH-77,17 µM
same,IC50,C-33 A,18 µM
same,IC50,Calu-3,11 µM
same,IC50,Capan-2,9.1 µM
same,IC50,D-283MED,1.2 µM
same,IC50,EFO-21,31 µM
same,IC50,EGI-1,9 µM
same,IC50,F-36P,23 µM
same,IC50,HCC1937,15 µM
same,IC50,HEC-1-A,16 µM
same,IC50,HL-60,7 µM
same,IC50,HUP-T4,17 µM
same,IC50,J82,20 µM
same,IC50,KELLY,15 µM
same,IC50,KMS-12-PE,5.3 µM
same,IC50,KMS-28BM,9 µM
same,IC50,MDA-MB-231,17 µM
same,IC50,ME-180,9.3 µM
same,IC50,NCI-H1048,9.4 µM
same,IC50,NCI-H2227,16 µM
same,IC50,NCI-H292,1.6 µM
same,IC50,NCI-H441,10 µM
same,IC50,NCI-H446,18 µM
same,IC50,NCI-H522,22 µM
same,IC50,NCI-H69,15 µM
same,IC50,RL95-2,9.3 µM
same,IC50,RPMI-8226,6.6 µM
same,IC50,SK-ES-1,25 µM
same,IC50,SK-LU-1,11 µM
same,IC50,"SK-N-SH; Brain, TP53 Wild type",0.21 µM
same,IC50,SK-N-SH; SK-N-SH cells,0.2 µM
same,IC50,SW620,9.8 µM
same,IC50,TF-1a,10 µM
same,IC50,U-2197,22 µM
same,IC50,YAPC,18 µM
